Assay results: ChEMBL document CHEMBL1909046, “DrugMatrix in vitro pharmacology data”

How the values were obtained:
[1] = biological target: Mitogen-activated protein kinase 3 (Homo sapiens, UniProt P27361); experiment: DRUGMATRIX: Protein Serine/Threonine Kinase, ERK1 enzyme inhibition (substrate: Myelin Basic Protein); set-up: species or system Escherichia coli; details: Not Active = under 50% inhibition at 10 µM
Cytochrome P450 2A6 = biological target: T1, Cytochrome P450 2A6 (Homo sapiens, UniProt P11509); details: bti-tn-5b1-4; also: in other assays of this panel Not Active means under 50% inhibition at 10 µM
T1 sequence (P11509 whole entry): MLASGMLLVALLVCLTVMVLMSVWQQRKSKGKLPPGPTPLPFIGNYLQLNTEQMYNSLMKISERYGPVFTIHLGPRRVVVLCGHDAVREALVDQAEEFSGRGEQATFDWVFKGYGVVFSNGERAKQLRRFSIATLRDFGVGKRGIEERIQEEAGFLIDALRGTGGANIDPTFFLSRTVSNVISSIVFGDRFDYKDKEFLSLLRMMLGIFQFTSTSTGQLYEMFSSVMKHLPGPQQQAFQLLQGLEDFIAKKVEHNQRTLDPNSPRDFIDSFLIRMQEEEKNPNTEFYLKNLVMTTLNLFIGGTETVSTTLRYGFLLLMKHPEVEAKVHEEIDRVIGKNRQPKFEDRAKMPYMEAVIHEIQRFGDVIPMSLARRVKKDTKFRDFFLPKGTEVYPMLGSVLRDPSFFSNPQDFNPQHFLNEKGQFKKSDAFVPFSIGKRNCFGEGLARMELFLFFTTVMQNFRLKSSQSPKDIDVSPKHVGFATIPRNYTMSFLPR

Androgen receptor = biological target: T2, Androgen receptor (Rattus norvegicus, UniProt P15207); also: in other assays of this panel Not Active means under 50% inhibition at 10 µM
T2 sequence (P15207 whole entry): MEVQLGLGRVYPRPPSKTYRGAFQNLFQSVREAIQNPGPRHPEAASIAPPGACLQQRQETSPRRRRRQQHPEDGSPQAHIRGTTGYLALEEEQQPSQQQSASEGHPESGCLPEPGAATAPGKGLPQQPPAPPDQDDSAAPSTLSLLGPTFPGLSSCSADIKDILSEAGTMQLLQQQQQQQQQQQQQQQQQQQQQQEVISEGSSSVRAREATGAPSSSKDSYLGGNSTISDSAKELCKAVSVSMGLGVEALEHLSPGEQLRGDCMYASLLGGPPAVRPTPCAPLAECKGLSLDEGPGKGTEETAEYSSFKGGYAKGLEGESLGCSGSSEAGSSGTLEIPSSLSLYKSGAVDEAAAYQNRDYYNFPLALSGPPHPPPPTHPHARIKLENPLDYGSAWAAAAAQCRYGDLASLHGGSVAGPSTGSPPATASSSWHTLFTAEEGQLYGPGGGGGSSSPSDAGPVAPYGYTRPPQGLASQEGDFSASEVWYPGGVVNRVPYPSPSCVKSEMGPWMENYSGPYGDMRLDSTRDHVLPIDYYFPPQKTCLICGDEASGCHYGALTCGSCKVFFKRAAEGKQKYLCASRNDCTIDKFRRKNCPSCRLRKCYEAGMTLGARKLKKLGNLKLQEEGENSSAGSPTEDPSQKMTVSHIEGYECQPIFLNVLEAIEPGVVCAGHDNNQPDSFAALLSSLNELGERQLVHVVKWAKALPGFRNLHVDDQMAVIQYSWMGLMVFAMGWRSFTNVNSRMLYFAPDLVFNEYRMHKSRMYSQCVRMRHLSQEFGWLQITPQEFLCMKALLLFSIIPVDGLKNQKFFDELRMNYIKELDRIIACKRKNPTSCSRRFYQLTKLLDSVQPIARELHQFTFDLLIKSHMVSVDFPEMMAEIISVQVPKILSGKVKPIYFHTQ

Progesterone receptor = biological target: T3, Progesterone receptor (Bos taurus, UniProt Q690N0); experiment: DRUGMATRIX: Progesterone radioligand binding (ligand: [3H] R-5020); type: tissue-based, Uterus; details: Not Active = under 50% inhibition at 10 µM
T3 sequence (Q690N0 whole entry): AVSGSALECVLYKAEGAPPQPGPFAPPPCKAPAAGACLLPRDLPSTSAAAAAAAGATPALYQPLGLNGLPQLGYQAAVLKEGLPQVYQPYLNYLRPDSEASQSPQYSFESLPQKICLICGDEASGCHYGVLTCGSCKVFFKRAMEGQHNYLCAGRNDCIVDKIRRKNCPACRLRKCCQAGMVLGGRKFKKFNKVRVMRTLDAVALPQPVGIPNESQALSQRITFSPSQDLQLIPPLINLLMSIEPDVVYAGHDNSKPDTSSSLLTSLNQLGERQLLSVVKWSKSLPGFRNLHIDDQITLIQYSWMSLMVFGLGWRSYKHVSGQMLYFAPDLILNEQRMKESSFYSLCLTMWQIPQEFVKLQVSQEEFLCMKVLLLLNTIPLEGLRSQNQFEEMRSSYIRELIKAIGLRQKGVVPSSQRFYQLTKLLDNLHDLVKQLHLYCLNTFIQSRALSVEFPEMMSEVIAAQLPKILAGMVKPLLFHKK

Nitric oxide synthase 1 = Nitric oxide synthase 1 (Rattus norvegicus, UniProt P29476); type: tissue-based, Cerebellum; also: in other assays of this panel Not Active means under 50% inhibition at 10 µM
[2] = DRUGMATRIX: GABAA, Chloride Channel, TBOB radioligand binding (ligand: [3H] TBOB); type: cell membranes, Rattus norvegicus, Wistar, Cerebral cortex, Membrane; details: Not Active = under 50% inhibition at 10 µM
B2 bradykinin receptor = biological target: T4, B2 bradykinin receptor (Homo sapiens, UniProt P30411); type: cell membranes, Membrane; details: chem-1; also: in other assays of this panel Not Active means under 50% inhibition at 10 µM
T4 sequence (P30411 whole entry): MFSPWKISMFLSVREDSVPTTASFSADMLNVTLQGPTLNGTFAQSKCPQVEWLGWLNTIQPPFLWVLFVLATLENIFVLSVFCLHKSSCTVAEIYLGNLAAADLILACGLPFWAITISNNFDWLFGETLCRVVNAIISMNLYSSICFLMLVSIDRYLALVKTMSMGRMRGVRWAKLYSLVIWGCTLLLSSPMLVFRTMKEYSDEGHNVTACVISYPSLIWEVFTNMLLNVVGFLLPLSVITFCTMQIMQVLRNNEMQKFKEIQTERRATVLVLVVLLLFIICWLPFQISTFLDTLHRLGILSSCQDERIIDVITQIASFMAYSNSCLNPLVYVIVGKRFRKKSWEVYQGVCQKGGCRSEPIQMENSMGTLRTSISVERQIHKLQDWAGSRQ

[3] = biological target: T5, Cholecystokinin receptor type A (Homo sapiens, UniProt P32238); type: cell membranes, Membrane; details: 1321-n1; also: in other assays of this panel Not Active means under 50% inhibition at 10 µM
T5 sequence (P32238 whole entry): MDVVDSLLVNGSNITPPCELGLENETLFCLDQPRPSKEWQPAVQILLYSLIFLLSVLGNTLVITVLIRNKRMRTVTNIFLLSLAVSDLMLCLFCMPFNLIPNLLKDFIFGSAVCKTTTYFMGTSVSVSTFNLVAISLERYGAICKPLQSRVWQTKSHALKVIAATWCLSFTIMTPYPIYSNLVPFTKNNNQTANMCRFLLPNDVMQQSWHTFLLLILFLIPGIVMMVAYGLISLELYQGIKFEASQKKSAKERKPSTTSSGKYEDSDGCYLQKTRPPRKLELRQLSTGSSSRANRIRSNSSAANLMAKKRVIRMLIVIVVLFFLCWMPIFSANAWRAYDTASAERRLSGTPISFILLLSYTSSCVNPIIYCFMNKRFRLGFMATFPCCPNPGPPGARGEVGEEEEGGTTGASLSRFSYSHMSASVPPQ

Chain of Nitric oxide synthase 1 (P29476 whole entry): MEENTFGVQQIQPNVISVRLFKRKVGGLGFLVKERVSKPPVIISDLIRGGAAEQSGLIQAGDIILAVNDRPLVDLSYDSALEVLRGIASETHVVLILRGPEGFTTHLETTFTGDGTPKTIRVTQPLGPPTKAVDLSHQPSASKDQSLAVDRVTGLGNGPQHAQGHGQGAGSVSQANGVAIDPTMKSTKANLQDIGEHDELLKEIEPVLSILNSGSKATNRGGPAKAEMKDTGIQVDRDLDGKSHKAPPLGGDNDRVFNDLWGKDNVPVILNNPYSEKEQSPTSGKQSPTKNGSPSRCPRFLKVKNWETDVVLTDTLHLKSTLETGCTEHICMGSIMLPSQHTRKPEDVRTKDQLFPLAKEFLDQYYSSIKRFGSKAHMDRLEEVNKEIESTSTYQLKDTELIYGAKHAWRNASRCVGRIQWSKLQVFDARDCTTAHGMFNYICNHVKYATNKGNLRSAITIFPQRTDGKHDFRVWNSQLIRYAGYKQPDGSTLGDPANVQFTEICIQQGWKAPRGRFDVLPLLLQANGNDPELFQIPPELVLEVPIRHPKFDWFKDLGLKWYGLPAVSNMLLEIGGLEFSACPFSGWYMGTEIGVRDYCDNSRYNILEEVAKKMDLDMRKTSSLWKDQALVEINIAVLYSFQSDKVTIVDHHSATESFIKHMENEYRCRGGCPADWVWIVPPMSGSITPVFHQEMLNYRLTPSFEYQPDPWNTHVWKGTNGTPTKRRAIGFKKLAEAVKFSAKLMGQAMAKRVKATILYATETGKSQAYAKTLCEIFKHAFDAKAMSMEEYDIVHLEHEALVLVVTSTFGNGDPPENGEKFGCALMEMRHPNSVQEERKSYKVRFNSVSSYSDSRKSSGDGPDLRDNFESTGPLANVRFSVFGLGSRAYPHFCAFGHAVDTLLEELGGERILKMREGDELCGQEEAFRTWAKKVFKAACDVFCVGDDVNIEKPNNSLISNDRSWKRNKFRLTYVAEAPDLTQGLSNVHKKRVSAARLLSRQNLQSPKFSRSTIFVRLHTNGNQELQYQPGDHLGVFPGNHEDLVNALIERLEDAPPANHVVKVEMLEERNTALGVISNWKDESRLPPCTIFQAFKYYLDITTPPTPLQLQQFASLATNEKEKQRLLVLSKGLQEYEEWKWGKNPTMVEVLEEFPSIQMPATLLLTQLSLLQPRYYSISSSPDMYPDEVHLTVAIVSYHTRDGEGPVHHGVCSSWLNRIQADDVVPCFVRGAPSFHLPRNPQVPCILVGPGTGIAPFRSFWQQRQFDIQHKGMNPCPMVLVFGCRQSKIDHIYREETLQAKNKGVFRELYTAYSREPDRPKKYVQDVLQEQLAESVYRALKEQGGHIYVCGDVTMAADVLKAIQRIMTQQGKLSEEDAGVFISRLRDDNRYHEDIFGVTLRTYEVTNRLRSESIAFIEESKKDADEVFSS
Chain of Mitogen-activated protein kinase 3 (P27361 whole entry): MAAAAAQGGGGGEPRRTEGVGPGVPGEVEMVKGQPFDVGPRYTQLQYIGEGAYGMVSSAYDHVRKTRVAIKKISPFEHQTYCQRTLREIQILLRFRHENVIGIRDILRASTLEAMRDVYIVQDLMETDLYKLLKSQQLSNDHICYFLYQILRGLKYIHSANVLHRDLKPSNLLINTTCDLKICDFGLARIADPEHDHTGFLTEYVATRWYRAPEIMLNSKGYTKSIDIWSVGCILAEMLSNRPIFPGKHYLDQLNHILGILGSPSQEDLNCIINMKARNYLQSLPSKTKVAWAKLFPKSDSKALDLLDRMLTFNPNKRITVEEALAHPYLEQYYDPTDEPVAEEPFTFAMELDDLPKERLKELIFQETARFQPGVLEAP

NCC[C@H](O)C(=O)N[C@@H]1C[C@H](N)[C@@H](O[C@H]2O[C@H](CN)[C@@H](O)[C@H](O)[C@H]2O)[C@H](O)[C@H]1O[C@H]1O[C@H](CO)[C@@H](O)[C@H](N)[C@H]1O [AMIKACIN]
Not Active: IC50 [1] | IC50 (Cytochrome P450 2A6) | Ki (Cytochrome P450 2A6) | IC50 (Androgen receptor) | IC50 (Progesterone receptor) | IC50 (Nitric oxide synthase 1) | IC50 [2] | Ki [2] | IC50 (B2 bradykinin receptor) | IC50 [3]

CC1(C)S[C@@H]2[C@H](NC(=O)[C@H](N)c3ccc(O)cc3)C(=O)N2[C@H]1C(=O)O [AMOXICILLIN]
Not Active: IC50 [1] | IC50 (Cytochrome P450 2A6) | Ki (Cytochrome P450 2A6) | IC50 (Androgen receptor) | IC50 (Progesterone receptor) | IC50 (Nitric oxide synthase 1) | IC50 [2] | Ki [2] | IC50 (B2 bradykinin receptor) | IC50 [3]

N#C[C@H](O[C@@H]1O[C@H](CO[C@@H]2O[C@H](CO)[C@@H](O)[C@H](O)[C@H]2O)[C@@H](O)[C@H](O)[C@H]1O)c1ccccc1 [AMYGDALIN]
Not Active: IC50 [1] | IC50 (Cytochrome P450 2A6) | Ki (Cytochrome P450 2A6) | IC50 (Androgen receptor) | IC50 (Progesterone receptor) | IC50 (Nitric oxide synthase 1) | IC50 [2] | Ki [2] | IC50 (B2 bradykinin receptor) | IC50 [3]

C=C1[C@@H]2CCC3[C@@](CC[C@@H]4[C@H](C(=O)O)C[C@@H](O[C@@H]5O[C@H](CO)[C@@H](OS(=O)(=O)[O-])[C@H](OS(=O)(=O)[O-])[C@H]5OC(=O)CC(C)C)C[C@@]34C)(C2)[C@@H]1O.[K+].[K+] (stereo not given in full) [ATRACTYLOSIDE]
Not Active: IC50 [1] | IC50 (Cytochrome P450 2A6) | Ki (Cytochrome P450 2A6) | IC50 (Androgen receptor) | IC50 (Progesterone receptor) | IC50 (Nitric oxide synthase 1) | IC50 [2] | Ki [2] | IC50 (B2 bradykinin receptor) | IC50 [3]

OCc1ccccc1 [BENZYL ALCOHOL]
Not Active: IC50 [1] | IC50 (Cytochrome P450 2A6) | Ki (Cytochrome P450 2A6) | IC50 (Androgen receptor) | IC50 (Progesterone receptor) | IC50 (Nitric oxide synthase 1) | IC50 [2] | Ki [2] | IC50 (B2 bradykinin receptor) | IC50 [3]

Brc1ccccc1 [BROMOBENZENE]
Not Active: IC50 [1] | IC50 (Cytochrome P450 2A6) | Ki (Cytochrome P450 2A6) | IC50 (Androgen receptor) | IC50 (Progesterone receptor) | IC50 (Nitric oxide synthase 1) | IC50 [2] | Ki [2] | IC50 (B2 bradykinin receptor) | IC50 [3]

CC[C@@]1(O)C(=O)OCc2c1cc1n(c2=O)Cc2cc3ccccc3nc2-1 [CAMPTOTHECIN]
Not Active: IC50 [1] | IC50 (Cytochrome P450 2A6) | Ki (Cytochrome P450 2A6) | IC50 (Androgen receptor) | IC50 (Progesterone receptor) | IC50 (Nitric oxide synthase 1) | IC50 [2] | Ki [2] | IC50 (B2 bradykinin receptor) | IC50 [3]

COCc1c(C(C)C)nc(C(C)C)c(/C=C/[C@@H](O)C[C@@H](O)CC(=O)O)c1-c1ccc(F)cc1 [CERIVASTATIN]
Not Active: IC50 [1] | IC50 (Cytochrome P450 2A6) | Ki (Cytochrome P450 2A6) | IC50 (Androgen receptor) | IC50 (Progesterone receptor) | IC50 (Nitric oxide synthase 1) | IC50 [2] | Ki [2] | IC50 (B2 bradykinin receptor) | IC50 [3]

CCc1cccc2c3c([nH]c12)C(CC)(CC(=O)O)OCC3 (stereo not given) [ETODOLAC]
Not Active: IC50 [1] | IC50 (Cytochrome P450 2A6) | Ki (Cytochrome P450 2A6) | IC50 (Androgen receptor) | IC50 (Progesterone receptor) | IC50 (Nitric oxide synthase 1) | IC50 [2] | Ki [2] | IC50 (B2 bradykinin receptor) | IC50 [3]
